Test results from US10183011B2, “Anti-depression compounds” (Board of Regents of the University of Texas System, priority 2009, dated 2019).
“Also recorded” adds a separate entry of the source.

Tests used:
[1] = Brain and blood levels three weeks after MPTP administration (LC/MS/MS); type: in vivo, mouse (C57BL/6); details: 21 days i.p. dosing after MPTP
Description: Data are expressed as mean±SEM. Three animals were tested per group.
C57BL/6 mice treated with MPTP and then dosed IP with compound for 21 days were utilized for pharmacokinetic (PK) analysis of total P7C3, P7C3A20 and Dimebon levels in plasma and brain. In a separate set of experiments designed to test the ability of new P7C3 analogs to cross the blood brain barrier, C57BL/6 mice were dosed IP a single time with compounds at 10 mg/kg. P7C3, P7C3A20 and Dimebon were formulated for administration as described above. Analogs were formulated in 5% Dextrose, pH 7.4, containing 5% DMSO and 10% Cremophor EL with the exception of P7C3-S8 which required 10% DMSO and 20% Cremophor EL dissolved in 5% Dextrose for delivery. Six hours after the final compound dose, animals were given an inhalation overdose of CO2 and whole blood and brain collected. Plasma was prepared from blood and was stored along with the brain tissue at −80° C. until analysis. […] The supernatant was then analyzed by LC/MS/MS. […] The limit of quantitation (LOQ) was defined as the lowest concentration at which back calculation yielded a concentration within 20% of the theoretical value and above the LOD signal. […] Compound levels were monitored by LC/MS/MS using an AB/Sciex (Framingham, Mass.) 3200 Qtrap mass spectrometer coupled to a Shimadzu (Columbia, Md.) Prominence LC.

[2] = tested on: neural precursor cells in the subgranular zone of the dentate gyrus; test: In vivo pro-neurogenic efficacy/neuroprotection assay: intracerebroventricular infusion, BrdU incorporation in the dentate gyrus; design: species or system mouse (C57/Bl6); details: for pro-neurogenic activity in the in vivo hippocampal neurogenesis assay: direct administration into the brain via Alzet minipumps for one week, 10 μM unless stated
Description: Compounds were evaluated for pro-neurogenic efficacy/neuroprotection in our standard in vivo assay at 10 μM concentration in four 12 week old adult male C57/Bl6 mice.
In an effort to identify compounds that might stimulate the birth of new neurons, or protect newborn neurons from cell death, a library of 1,000 compounds was screened using an in vivo assay. In the initial screen, compounds were randomly pooled into groups often and administered intracerebroventricularly at a constant rate over seven days into the left lateral ventricle of living mice via Alzet osmotic mini-pumps. Compounds were administered at a concentration of 10 μM for each molecule, making a total solute concentration of 100 μM. After seven days of infusion at a constant rate of 0.5 μL/hour, a total of 84 μL of volume will have left the pump (0.00084 μMoles) and entered the cerebrospinal fluid. The average volume of a brain from a 12 week old male, C57/B6 mouse in our study is 500 mm^3. […] Under these conditions, at the end of one week of infusion each compound would be present at 1.7 μMolar concentration. Since the actual amount of chemical compound in the brain is likely to be only a fraction of this predicted level, it is reasonable to estimate that compounds were administered at mid to low-nanomolar concentrations.
During compound infusion, animals were intraperitoneally (IP) injected daily with the thymidine analog, bromodeoxyuridine (BrdU), as a means of scoring the birth and survival of proliferating neural precursor cells in the hippocampus. Because both social interaction and voluntary exercise are known to stimulate hippocampal neurogenesis, mice were housed individually without access to running wheels throughout the screening period. Following the week-long period of compound administration, animals were perfused and sacrificed. Dissected brain tissue was fixed, embedded, sectioned, stained with antibodies to BrdU, and evaluated by light microcopy as a means of quantifying neurogenesis and survival of newborn neural precursor cells localized to the subgranular layer of the dentate gyrus on the brain hemisphere contralateral to the side of mini-pump cannulation. Every fifth section throughout the entire rostral-caudal extent of the hippocampus was analyzed, and the total number of BrdU+ cells was normalized against the measured volume of the dentate gyrus. Because both increased proliferation and survival of newborn neurons are important screening parameters, the screen was conducted over seven days in order to cast a wide net to detect molecules that might augment either process. […] Intracranial infusions of either fibroblast growth factor 2 (FGF-2) or artificial cerebral spinal fluid (aCSF) vehicle via the same, week-long protocol were employed as positive and negative controls. There was no difference in the number of BrdU-labeled cells in the dentate gyrus between mice subjected to surgical pump implantation and infusion with vehicle, and mice having had no surgery (FIG. 2). This confirmed the validity of the in vivo approach to assess the ability of intracerebroventricularly infused compounds to enhance hippocampal neurogenesis in the contralateral hemisphere.
In order to further study Example 45 Compound, an in vivo structure activity relationship (SAR) study was conducted using 37 chemical derivatives of the compound for pro-neurogenic activity via direct administration into the brain of adult mice via Alzet minipumps. Compounds were administered for one week at 10 uM into 4 mice per compound, along with daily IP injections of BrdU. Following compound administration, animals were perfused, sacrificed and subjected to sectioning, staining and light microscopy in order to monitor hippocampal neurogenesis localized to the subgranular layer of the dentate gyrus. Roughly 10% of the variant compounds retained pro-neurogenic activity indistinguishable from the parent compound. […]

[3] = tested on: hippocampal neurogenesis in the DG; test: Comparison of P7C3 compounds and antidepressant drugs: DG BrdU labeling after i.c.v. infusion; type: in vivo, mouse; details: 10 μM i.c.v. for 7 days
Excerpt: The neuroprotective efficacies of both P7C3 and P7C3-A20 were next compared to currently marketed antidepressant medications, using screening conditions identical to those by which P7C3 was originally discovered. This experiment was based on the antidepressant actions of P7C3 and P7C3-A20 characterized here, and the dependence on hippocampal neurogenesis for behavioral efficacy of some marketed antidepressant medications in mice.
Proneurogenic efficacies in the DG of P7C3 and P7C3A20 were compared to those of vehicle (artificial cerebrospinal fluid) and several marketed antidepressant compounds (Sigma-Aldrich, St. Louis, Mo.) according to established methods. In brief, mice were housed individually in cages without running wheels or any form of environmental enrichment, in order to create an environment predicted to have as low of a baseline level of hippocampal neurogenesis as possible. Compounds (10 μM, i.c.v.) were administered for 7 days via subcutaneously implanted Alzet osmotic minipumps connected to a cannula directed into the left lateral ventricle, with implantation day designated as day 0. Starting on day 1, mice also received daily injections of BrdU (50 mg/kg, i.p.) at 9 am daily, for 6 days. Twenty four hours after the sixth BrdU injection, mice were transcardially perfused as described above.

SMILES | brain accumulation relative to other compound [1] | pro-neurogenic activity in the in vivo hippocampal neurogenesis assay [2] | further results
Cc1ccc2c(c1)c1c(n2CCc2ccc(C)nc2)CCN(C)C1 [Dimebon, 2,3,4,5-Tetrahydro-2,8-dimethyl-5-(2-(6-methyl-3-pyridyl)ethyl)-1H-pyrido(4,3-b)indole, reference compound] | comparable levels of brain accumulation to P7C3A20; also recorded: equivalent to P7C3 | – | –
OC(CNc1ccccc1)Cn1c2ccc(Br)cc2c2cc(Br)ccc21 (stereo not drawn) [Example 45 Compound] | – | pro-neurogenic or neuroprotective activity at both concentrations | ceiling of efficacy relative to Dimebon in the in vivo test of hippocampal neurogenesis ([2]; higher than Dimebon): roughly 40%
OC(CNc1cccc2ccccc12)Cn1c2ccc(Cl)cc2c2cc(Cl)ccc21 (stereo not drawn) [Example P7C3-S184] | – | inactive in both in vivo assays | –
COc1cccc(NCC(F)Cn2c3ccc(Br)cc3c3cc(Br)ccc32)c1 (stereo not drawn) [Example P7C3A20, N-(3-(3,6-dibromo-9H-carbazol-9-yl)-2-fluoropropyl)-3-methoxyaniline] | less than one-tenth the concentration of P7C3; also recorded: about one-tenth | – | –
OC(CNc1ccccc1)Cn1c2ccc(Br)cc2c2cc(Br)ccc21 (stereo not drawn) [Example P7C3] | – | – | increase of DG neurogenesis (BrdU labeling) over vehicle [3]: about 100%
